This is an account of results in US8835644B2, “Broad spectrum benzothiophene-nitrothiazolide and other antimicrobials” (University of Virginia Patent Foundation, priority 2009, dated 2014).

The structures appear in SMILES notation. ≈ marks a conversion by molar mass, not a printed value. Read-outs that look alike come from different tables or passages of the source.

In assay [1] the test system is EAEC strains 042 and 17-2. The experiment in a line: Growth and MIC of E. coli / EAEC strains in LB and MinA-G medium. The class given is cell-based. As to conditions: Escherichia coli; for MIC: static. Here is the method:
(§1) EAEC strains were grown overnight in MinA-G medium at 37° C. with shaking and used to inoculate fresh MinA-G medium containing a range of NTZ concentrations (0, 5, 10, 15, 20, and 25 μg/ml) to a starting OD600 of 0.1. Growth was recorded as the absorbance at 600 nm at 30-minute intervals over a period of eight hours. […] Motility was assessed in LB soft agar (0.3% agar) containing 0 to 25 μg/ml of NTZ. The diameter of outward spreading was measured daily and inhibition computed as percent of control.

For another assay, the system named is E. coli. The assay can be described thus: MIC testing by broth dilution, E. coli plank. Type of assay: cell-based, Escherichia coli. Put shortly:
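Planktonic E. coli (LB) and S. epidermidis (Trypticase Soy), plus C. jejuni (Brain Heart Infusion), were exposed to a dilution series starting at 32 μg/ml. The C. difficile values are anaerobic zone ratios against NTZ.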

For the next assay, the system named is EAEC. The experiment in a line: Motility in soft agar. The class given is cell-based, Escherichia coli. Particulars: concentrations that inhibited biofilm formation. Here is the method:
as §1

Assay [2] concerns S. haemolyticus strain 33208. The assay can be described thus: Biofilm determination, crystal violet, S. haemolyticus. The class given is cell-based. As to conditions: Staphylococcus haemolyticus; S. haemolyticus strain 33208, crystal violet; read-out: IC50 biofilm production. As to the method: Staphylococcal strains were cultured overnight in TSB at 37° C. with shaking, diluted in fresh medium to an OD600 of 0.01 and 200 W was dispensed into sterile flat bottom polystyrene 96 well microtiter plates (Costar 3596, Corning Inc.). […] Each compound and dilution was tested in triplicate. The plates were incubated overnight at 37° C. in a humidified incubator, without shaking and both growth and biofilm accumulation were determined at 16 h.
Following recording of turbidities, the culture medium was aspirated and the wells were washed three times with distilled water, blotted on paper towels, and fixed with 75% ethanol for 10 minutes.
To visualize biofilm material, 0.5% crystal violet was added to each well and after 5 minutes was removed and the wells washed three times with distilled water. Plates were read using a microplate reader at a wavelength of 570 nm. The dye was then extracted by adding 200 W of 95% ethanol, and the absorbance was read again at 570 nm. All assays were performed in triplicate and the mean and standard deviation determined. Generally, the ethanol-solubilized crystal violet was more reliable and these determinations are reported throughout.

Another assay concerns S. epidermidis. The assay can be described thus: Aerobic growth of S. epidermidis in shaken TSB flasks. Type of assay: cell-based, Staphylococcus epidermidis. Here is the method:
Minimal inhibitory concentration testing of NTZ was done in sterile round bottom 96 well microtiter polystyrene plates (Corning Inc., Corning, N.Y.) by microdilution. Tizoxanide TIZ (deacetylated form of NTZ), denitro-NTZ (TIZ without 5-nitro group) and amoxanide AMIX (TIZ-ethylamine) were also tested. Bacteria were grown overnight and suspended in fresh TSB to an OD600 of 0.01 and 100 μl were dispensed into wells with the first well containing 200 μA NTZ and other antibiotics (DMSO control) were added to well one and serially diluted from 32 μg/ml. All compounds were tested in triplicate and plates were read visually or with a plate reader (Molecular Devices) at 8, 12 and at 24 h. MIC was determined as the first well in which no visible bacterial growth was noted relative to controls. Drug effects on aerobic growth were determined in 125 ml flasks containing 25 ml of TSB medium and following inoculation (detailed above), flasks were on a gyrorotary shaker (200 rpm) at 37° C. Final concentrations of NTZ were 0, 10 and 25 μg/ml and samples were removed at hourly intervals and absorbance determined at 600 nm.

Assay [3] relates to AafA fimbriae of EAEC 042. The experiment in a line: Fimbrial filaments by SDS-PAGE, immunoblot, immunofluorescence. As to conditions: EAEC 042, MinA-G, 20 μg/ml. Type of assay: cell-based, Escherichia coli. Here is the method:
A simplified procedure for mechanical removal of fimbriae was modified from Dodd and Eisenstein (5). […] The cultures were spun down at 4,000 rpm for 5 min at 25° C. Pellets were resuspended in 2 ml PBS, vortexed 2× for 30 sec to shear off flagella and fimbriae, and then centrifuged at 8,000 rpm for 10 min to remove whole cells. The supernatants, containing fimbrial filaments, were transferred to new tubes, and 8 ml of acetone were added to precipitate proteins. Solutions were spun down again at 8,000 rpm for 10 min, and the acetone was decanted. The remaining protein pellets were resuspended in 50 μl PBS and 100 μl 3× loading buffer containing 2-mercaptoethanol.
To analyze the proteins contained in the biofilm, the flasks were rinsed with water to remove residual bacteria, and the biofilms were dissolved in 1-2 ml 1% SDS. 50 μl of each solution was combined with 100 μl 3× loading buffer in PCR tubes. All five samples were run in a NuPAGE 4-12% Bis-Tris gel at 120 V and stained with Coomassie brilliant blue or used directly for transfer of proteins to nitrocellulose.
Ponceau red stained nitrocellulose was used to visualize transferred proteins and immunoblotting protocols used in this study as described (14). […] The slides were washed 3× in PBS, dried and visualized with a Zeiss epi-fluorescence microscope.
In general terms: A western blot detects proteins with antibodies after separation by electrophoresis.

As to `CC(=O)Oc1ccccc1C(=O)Nc1ncc([N+](=O)[O-])s1` [Nitazoxanide, 2-(acetyloxy)-N-(5-nitro-2-thiazolyl)benzamide, reference compound], the IC50 is 20 to 25 µg/mL in assay [1] (042AND172, read-out: Concentration for 50% inhibition of aerobic growth, EAEC 17-2, MinA-G, estimated); 15 to 20 µg/mL in assay [1] (042AND172, read-out: Concentration for 50% inhibition of aerobic growth, EAEC 042, MinA-G, estimated); 2.5 µg/mL (≈ 8.14 µM) in assay [2]. The MIC – broadly, the lowest concentration that inhibits growth of the organism – is more than 64 µg/mL in assay [1] (042AND172, E. coli strains, rich LB medium, read-out: MIC in LB medium); approximately 32 µg/mL in assay [1] (042AND172, minimal medium with glucose, read-out: MIC in MinA-G medium); 104 µM (≈ 32 µg/mL) in the assay on E. coli (Escherichia coli, broth dilution, LB medium, 24 h, read-out: MIC (μM) E. coli Plank); 104 µM (≈ 32 µg/mL) with E. coli (Escherichia coli, planktonic, Furan analogues table, read-out: MIC E. coli Plank); 104.1 µM (≈ 32 µg/mL) in the assay on E. coli (planktonic, 2-amino-3,5-dinitrothiophene analogues table, read-out: MIC E. coli Plank); 104.1 µM (≈ 32 µg/mL) in the assay on E. coli (planktonic, Thiophene analogues table, read-out: MIC E. coli Plank). For the same compound, in assay [1] (042AND172, EAEC strains, static conditions), the MIC50 (as a rule, an inhibitory concentration at the 50% level, which refers to growth in some studies and to a panel of isolates in others) is approximately 20 µg/mL. For the same compound, in the assay on EAEC, the “Effect on swarming motility in soft agar” value is on record as “no effect”. Moreover, the “Effect on exponential growth rates” value with S. epidermidis (10 μg/ml) is “little effect on exponential growth rates”. In addition, the “Inhibition of growth in liquid culture under vigorous aeration” value in the assay with S. epidermidis (25 μg/ml) is “significant inhibition”. Also, in assay [3], the “Fimbrial filaments from vortexed whole cells” value is listed as “nearly absent”.
